Assay [1] in a line: Vitamin C added to BCA: efficacy of BCA to increase cGP levels. As to conditions: added to BCA as ascorbic acid.
For assay [2], the system named is rats with ischemic brain injury. As to conditions: cited from earlier work.
The test system of another assay is hypertensive rats. The note with it: cited from earlier work.

With `O=C1O[C@H]([C@@H](O)CO)C(O)=C1O` [Vitamin C, ascorbic acid], the “effect on the efficacy of BCA to increase the levels of cGP” value in assay [1] was “negative effect”.
With `O=C1NCC(=O)N2CCC[C@@H]12` [cGP, cyclic glycine-proline], in assay [2], the ischemic brain injury entry is “prevents ischemic brain injury”. Moreover, in the assay with hypertensive rats, the systemic blood pressure result is recorded as “normalises the systemic blood pressure”.

(Values after patent publication US12216119B2, “IGF-1 analysis, adjustment and disease management of non-neurological and/or neurological conditions” (THE CGP LAB LIMITED, priority 2017, dated 2025).)
